Measurements from patent US12174174B2, “Composition comprising material for regulating OCT4 modification to repress stemness” (NATIONAL CANCER CENTER, priority 2018, dated 2024).

Tested on: CSNK2A1
Test: Doxycycline-dependent shRNA inhibition of CSNK2A1 expression in embryonic stem cell line E14, western blotting
Assay type: cell-based, mouse
Conditions: E14 cells, lentivirus, FIG. 24
Description: To confirm the relationship between CSNK2A1 and OCT4 phosphorylation using a kinase inducing the phosphorylation of serine 351 of OCT4, a cell line for regulating the inhibition of CSNK2A1 expression was produced. To this end, a lentivirus doxycycline-dependently expressing shRNA of SEQ ID NO: 5 or 6 was produced and transfected into an embryonic stem cell line E14, thereby producing a cell line capable of regulating CSNK2A1 expression using doxycycline.

Question: For “shRNA of SEQ ID NO: 5: short hairpin RNA inhibiting CSNK2A1 expression, base sequence of SEQ ID NO: 5 (CCGGCCGAGUUGCUUCUCGAUAUUUCUCGAGAAAUAUCGAGAAGCAACUCGGUUUUG)”, which “OCT4 phosphorylation after inhibition of CSNK2A1 expression” value is on record?
Answer: The value was “a kinase inducing OCT4 phosphorylation is CSNK2A1”.

Question: With “shRNA of SEQ ID NO: 6: short hairpin RNA inhibiting CSNK2A1 expression, base sequence of SEQ ID NO: 6 (CCGGACAGACUAUGACAUUCGAUUUCUCGAGAAAUCGAAUGUCAUAGUCUGUUUUUUG)” as the substance, how does the “OCT4 phosphorylation after inhibition of CSNK2A1 expression” value read?
Answer: Its value is “a kinase inducing OCT4 phosphorylation is CSNK2A1”.
